Results: US6881749B2, “Pyranoindazoles and their use for the treatment of glaucoma” (Alcon, Inc., priority 2001, dated 2005)

Assays:
[1] = test system: monkey; settings: due to its α1A receptor activity; cited from earlier work
[2] = test system: Conscious Cynomolgus Monkeys; experiment: IOP response in conscious cynomolgus monkeys; assay type: in vivo, cynomolgus monkey; settings: dose 100 μg, 6 hours after dose
[3] = test system: rabbits; settings: cited from earlier work

With `COc1ccccc1N1CCN(CCCNc2c(C)c(=O)n(C)c(=O)n2C)CC1` [5-methylurapidil] as the molecule, how does the “effect on IOP” value [1] read?
The value was “lowers IOP”.

For `COc1cc(C[C@@H](C)N)c(OC)cc1I` [(R)-DOI], which “Percent IOP Reduction ± SEM” value [2] is on record?
Its value is 34.4 ± 4.98%.

With `CCCN(CCC)C1CCc2cccc(O)c2C1` (stereo not drawn) [Example 8-OH-DPAT, 8-hydroxydipropylaminotetralin] as the molecule, how does the “effect on IOP” value [3] read?
Its value is “reduces IOP”.
